# Measured values: PubChem BioAssay AID330 (DTP/NCI, 2004)
# Values joined by “and” are separate entries in the source; they are usually repeats but may differ in a detail not shown here. Equal entries are not always repeated. Toxic doses and inconclusive results are not listed.
# Tested on: P388 leukemia ip, CD2F1 mice, survival T/C
# Test: NCI In Vivo Anticancer Drug Screen. Data for tumor model P388 Leukemia (intraperitoneal) in CD2F1 (CDF1) mice
# Settings: endpoint: median survival time, higher = longer survival
# In short: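 Mice carrying the transplanted tumor received test compound or vehicle. Survival was recorded in each group, and the value is the treated-group measurement divided by that of the vehicle-treated control group.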
# [1] = dose: 50.0 mg/kg/injection, schedule: Q01DX009 (ip), vehicle: Klucel (hydroxypropylcellulose) (HPC)
# [2] = dose: 100.0 mg/kg/injection, schedule: Q01DX009 (ip), vehicle: Klucel (hydroxypropylcellulose) (HPC)
# [3] = dose: 60.0 mg/kg/injection, schedule: Q01DX005 (ip), vehicle: saline with Tween-80
# [4] = dose: 120.0 mg/kg/injection, schedule: Q01DX005 (ip), vehicle: saline with Tween-80
# [5] = dose: 240.0 mg/kg/injection, schedule: Q01DX005 (ip), vehicle: saline with Tween-80
# [6] = dose: 50.0 mg/kg/injection, schedule: Q01DX009 (ip), vehicle: saline with Tween-80
# [7] = dose: 50.0 mg/kg/injection, schedule: Q01DX005 (ip), vehicle: saline with Tween-80
# [8] = dose: 100.0 mg/kg/injection, schedule: Q01DX005 (ip), vehicle: saline with Tween-80
# [9] = dose: 200.0 mg/kg/injection, schedule: Q01DX005 (ip), vehicle: saline with Tween-80
# [10] = dose: 50.0 mg/kg/injection, schedule: Q01DX009 (ip), vehicle: saline
# [11] = dose: 100.0 mg/kg/injection, schedule: Q01DX009 (ip), vehicle: saline
compound,measurement,setting,value
Cc1cnc(I)[nH]1,T/C,"dose: 100.0 mg/kg/injection, schedule: Q01DX001 (ip), vehicle: saline",102 % of control
same,T/C,"dose: 100.0 mg/kg/injection, schedule: Q04DX003 (ip), vehicle: saline",107 % of control
same,T/C,"dose: 200.0 mg/kg/injection, schedule: Q01DX001 (ip), vehicle: saline",105 % of control
same,T/C,"dose: 200.0 mg/kg/injection, schedule: Q04DX003 (ip), vehicle: saline",112 % of control
same,T/C,"dose: 400.0 mg/kg/injection, schedule: Q04DX003 (ip), vehicle: saline",92 % of control
CCn1c2ccccc2c2ccc(N=Cc3ccccc3[N+](=O)[O-])cc21,T/C,"dose: 100.0 mg/kg/injection, schedule: Q04DX003 (ip), vehicle: Klucel (hydroxypropylcellulose) (HPC)",98 % of control
same,T/C,"dose: 200.0 mg/kg/injection, schedule: Q04DX003 (ip), vehicle: Klucel (hydroxypropylcellulose) (HPC)",97 % of control
same,T/C,"dose: 400.0 mg/kg/injection, schedule: Q04DX003 (ip), vehicle: Klucel (hydroxypropylcellulose) (HPC)",96 % of control
CCCCN1C(=O)N/C(=C/C(=O)OCC)C1=O,T/C,"dose: 25.0 mg/kg/injection, schedule: Q01DX009 (ip), vehicle: Klucel (hydroxypropylcellulose) (HPC)",93 % of control
same,T/C,[1],103 % of control
same,T/C,[2],102 % of control
Cc1noc(NS(=O)(=O)c2ccc(NCc3c4ccccc4nc4cc(Cl)ccc34)cc2)c1C,T/C,[3],100 % of control
same,T/C,[4],97 % of control
same,T/C,[5],103 % of control
C[O][Sn]([CH3])([CH3])[O][Sn]([CH3])([CH3])[Cl],T/C,"dose: 6.25 mg/kg/injection, schedule: Q04DX003 (ip), vehicle: saline",103 % of control and 106 % of control
same,T/C,"dose: 12.5 mg/kg/injection, schedule: Q04DX003 (ip), vehicle: saline",100 % of control and 101 % of control and 96 % of control
same,T/C,"dose: 25.0 mg/kg/injection, schedule: Q04DX003 (ip), vehicle: saline",99 % of control and 100 % of control and 109 % of control
same,T/C,"dose: 50.0 mg/kg/injection, schedule: Q04DX003 (ip), vehicle: saline",102 % of control and 120 % of control and 97 % of control
Cc1nc2c(cc1C#N)C(Nc1ccc(Cl)cc1)Oc1ccc([N+](=O)[O-])cc1-2 (stereo not drawn),T/C,[3],92 % of control
same,T/C,[4],92 % of control
same,T/C,[5],90 % of control
CC1(C)CCNc2ccccc2S1,T/C,"dose: 100.0 mg/kg/injection, schedule: Q01DX001 (ip), vehicle: saline with Tween-80",103 % of control
same,T/C,"dose: 200.0 mg/kg/injection, schedule: Q01DX001 (ip), vehicle: saline with Tween-80",103 % of control
same,T/C,"dose: 400.0 mg/kg/injection, schedule: Q01DX001 (ip), vehicle: saline with Tween-80",100 % of control
N#Cc1ccc(CC(CC(=O)c2ccccc2)c2ccccc2)cc1 (stereo not drawn),T/C,"dose: 25.0 mg/kg/injection, schedule: Q01DX009 (ip), vehicle: saline with Tween-80",91 % of control
same,T/C,[6],89 % of control
same,T/C,"dose: 100.0 mg/kg/injection, schedule: Q01DX009 (ip), vehicle: saline with Tween-80",89 % of control
same,T/C,"dose: 200.0 mg/kg/injection, schedule: Q01DX009 (ip), vehicle: saline with Tween-80",89 % of control
NC(CSSCC(N)C(=O)O)C(=O)O (stereo not drawn),T/C,[1],105 % of control
same,T/C,[2],105 % of control
same,T/C,"dose: 200.0 mg/kg/injection, schedule: Q01DX009 (ip), vehicle: Klucel (hydroxypropylcellulose) (HPC)",106 % of control
C=CCNC(=S)N/N=C(C)/C=C/c1ccc(OC)cc1,T/C,"dose: 50.0 mg/kg/injection, schedule: Q01DX005 (ip), vehicle: Klucel (hydroxypropylcellulose) (HPC)",100 % of control
same,T/C,"dose: 100.0 mg/kg/injection, schedule: Q01DX005 (ip), vehicle: Klucel (hydroxypropylcellulose) (HPC)",96 % of control
same,T/C,"dose: 200.0 mg/kg/injection, schedule: Q01DX005 (ip), vehicle: Klucel (hydroxypropylcellulose) (HPC)",88 % of control
C=C[CH2][Sn]([c]1ccccc1)([c]1ccccc1)[c]1ccccc1,T/C,"dose: 6.25 mg/kg/injection, schedule: Q04DX003 (ip), vehicle: saline with Tween-80",92 % of control
same,T/C,"dose: 12.5 mg/kg/injection, schedule: Q04DX003 (ip), vehicle: saline with Tween-80",100 % of control
same,T/C,"dose: 25.0 mg/kg/injection, schedule: Q04DX003 (ip), vehicle: saline with Tween-80",101 % of control
CSC1=NS(=O)(=O)c2ccccc21,T/C,[7],96 % of control
same,T/C,[8],96 % of control
same,T/C,[9],103 % of control
Cc1noc2nc(-c3ccccc3)cc(N3CCN(C)CC3)c12,T/C,"dose: 12.5 mg/kg/injection, schedule: Q01DX005 (ip), vehicle: other",107 % of control
same,T/C,"dose: 25.0 mg/kg/injection, schedule: Q01DX005 (ip), vehicle: other",97 % of control
same,T/C,"dose: 50.0 mg/kg/injection, schedule: Q01DX005 (ip), vehicle: other",97 % of control
same,T/C,"dose: 100.0 mg/kg/injection, schedule: Q01DX005 (ip), vehicle: other",101 % of control
same,T/C,"dose: 200.0 mg/kg/injection, schedule: Q01DX005 (ip), vehicle: other",104 % of control
O/N=C1/C(=N/O)N(c2ccccc2)CN1c1ccccc1,T/C,"dose: 7.5 mg/kg/injection, schedule: Q01DX005 (ip), vehicle: Klucel (hydroxypropylcellulose) (HPC)",102 % of control
same,T/C,"dose: 15.0 mg/kg/injection, schedule: Q01DX005 (ip), vehicle: Klucel (hydroxypropylcellulose) (HPC)",95 % of control
same,T/C,"dose: 30.0 mg/kg/injection, schedule: Q01DX005 (ip), vehicle: Klucel (hydroxypropylcellulose) (HPC)",98 % of control
C=C(CSCCCCCCCCCCCC)C(=O)O,T/C,[7],116 % of control
same,T/C,[8],114 % of control
same,T/C,[9],115 % of control
CNC1C(O)C(OC2C(N)CC(N)C(OC3OC(CN)=CCC3N)C2O)OCC1(C)O (stereo not drawn),T/C,"dose: 62.5 mg/kg/injection, schedule: Q01DX009 (ip), vehicle: saline",104 % of control
same,T/C,"dose: 125.0 mg/kg/injection, schedule: Q01DX009 (ip), vehicle: saline",104 % of control
COc1cc(C(=O)CO)cc(OC)c1OC(C)=O,T/C,"dose: 100.0 mg/kg/injection, schedule: Q04DX003 (ip), vehicle: saline with Tween-80",104 % of control and 105 % of control
same,T/C,"dose: 200.0 mg/kg/injection, schedule: Q04DX003 (ip), vehicle: saline with Tween-80",116 % of control
COC(=O)C1(C(C(=O)c2ccccc2)c2ccccc2)NC(=S)NC(=O)C1C#N (stereo not drawn),T/C,[3],100 % of control
same,T/C,[4],105 % of control
same,T/C,[5],100 % of control
[CH3][Sn]([CH3])([CH3])[Cl],T/C,"dose: 0.19 mg/kg/injection, schedule: Q01DX009 (ip), vehicle: saline",100 % of control
same,T/C,"dose: 0.39 mg/kg/injection, schedule: Q01DX009 (ip), vehicle: saline",97 % of control
same,T/C,"dose: 0.78 mg/kg/injection, schedule: Q01DX009 (ip), vehicle: saline",101 % of control
CC([NH-])C(=O)O.[Cl][Pt][Cl] (stereo not drawn),T/C,"dose: 12.5 mg/kg/injection, schedule: Q01DX009 (ip), vehicle: saline",106 % of control
same,T/C,"dose: 25.0 mg/kg/injection, schedule: Q01DX009 (ip), vehicle: distilled water + Tween-80",154 % of control
same,T/C,"dose: 25.0 mg/kg/injection, schedule: Q01DX009 (ip), vehicle: saline",113 % of control
same,T/C,[10],123 % of control
same,T/C,[11],123 % of control
O=C(O)CCC1(C(=O)O)NCCc2c1[nH]c1ccccc21 (stereo not drawn),T/C,"dose: 25.0 mg/kg/injection, schedule: Q01DX009 (ip), vehicle: suspension in saline",95 % of control
same,T/C,"dose: 50.0 mg/kg/injection, schedule: Q01DX009 (ip), vehicle: suspension in saline",99 % of control
same,T/C,"dose: 100.0 mg/kg/injection, schedule: Q01DX009 (ip), vehicle: suspension in saline",98 % of control
CC(=O)Oc1ccc(/C=N/NC(N)=S)nc1,T/C,"dose: 4.0 mg/kg/injection, schedule: Q01DX009 (ip), vehicle: saline with Tween-80",154 % of control
same,T/C,"dose: 14.6 mg/kg/injection, schedule: Q01DX009 (ip), vehicle: saline with Tween-80",163 % of control
same,T/C,"dose: 22.0 mg/kg/injection, schedule: Q01DX009 (ip), vehicle: saline with Tween-80",177 % of control
same,T/C,"dose: 33.0 mg/kg/injection, schedule: Q01DX009 (ip), vehicle: saline with Tween-80",181 % of control
same,T/C,"dose: 37.5 mg/kg/injection, schedule: Q01DX009 (ip), vehicle: saline with Tween-80",170 % of control
same,T/C,[6],204 % of control
same,T/C,"dose: 75.0 mg/kg/injection, schedule: Q01DX009 (ip), vehicle: saline with Tween-80",173 % of control
same,T/C,"dose: 150.0 mg/kg/injection, schedule: Q01DX009 (ip), vehicle: saline with Tween-80",88 % of control
CC(=O)OCC1OC(NC(=S)NCC(=O)c2ccccc2)C(OC(C)=O)C(OC(C)=O)C1OC(C)=O (stereo not drawn),T/C,[7],99 % of control
same,T/C,[8],99 % of control
same,T/C,[9],98 % of control
O=c1cc(CSc2ncnc3nc[nH]c23)[nH]c(=O)[nH]1,T/C,[10],106 % of control
same,T/C,[11],111 % of control
same,T/C,"dose: 200.0 mg/kg/injection, schedule: Q01DX009 (ip), vehicle: saline",108 % of control
